Columns and labels:
monoamine oxidase = test: Inhibition of rat liver monoamine oxidase deamination of dopamine (DA, mixed-type MAO A and B substrate) in vitro; assay type: biochemical; details: substrate DA (5 × 10^-4 M), average of at least 3 independent experiments
Description: The aliphatic propargylamine inhibitors (from 1×10^-10 M to 1×10^-4 M) were preincubated with the MAO for 20 min. at ambient room temperature and then the residual enzyme activities were determined by addition of the substrates, followed by further incubation at 37° C. for 30 min. The enzymatic reactions were terminated by the addition of citric acid and the aldehyde products were extracted with toluene: ethyl acetate (1:1, v/v) and the radio-activities assessed in a scintillation counter.

MAO-B = target: T1, MAO-B (Mus musculus, UniProt Q8BW75); test: MAO-B activity in the mouse brain after oral administration (substrate PE); assay type: in vivo; details: 2 hours
T1 construct: MAO activities in the mouse brain after; from tissue
T1 sequence (Q8BW75 1-520): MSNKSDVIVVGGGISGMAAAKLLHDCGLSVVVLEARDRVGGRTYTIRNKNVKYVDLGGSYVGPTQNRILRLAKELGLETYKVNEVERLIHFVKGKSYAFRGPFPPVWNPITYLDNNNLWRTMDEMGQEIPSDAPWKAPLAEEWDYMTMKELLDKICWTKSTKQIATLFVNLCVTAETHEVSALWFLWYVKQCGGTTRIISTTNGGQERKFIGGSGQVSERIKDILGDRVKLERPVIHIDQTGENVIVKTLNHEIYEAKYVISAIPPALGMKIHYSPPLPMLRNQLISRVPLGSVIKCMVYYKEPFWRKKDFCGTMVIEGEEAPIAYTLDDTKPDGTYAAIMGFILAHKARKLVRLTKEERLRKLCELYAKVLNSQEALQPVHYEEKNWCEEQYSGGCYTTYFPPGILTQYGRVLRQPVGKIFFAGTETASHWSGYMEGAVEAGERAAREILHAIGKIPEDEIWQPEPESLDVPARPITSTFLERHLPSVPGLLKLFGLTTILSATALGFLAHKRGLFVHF
Description: (§1) Table 3 indicates the MAO activities in the mouse brain following oral administration of the aliphatic propargylamines.
(§2) of each compound. Striata were dissected from the brain two hours after
(§3) the administration of the drugs. MAOA and MAOB activities were determined
Striata were dissected from the brain two
hours after oral administration of the drugs. MAOB activities were then
determined immediately. The values were estimated from doseresponse

MAO-A = target: T2, MAO-A (Mus musculus, UniProt Q64133); assay type: in vivo; details: mouse, in vivo, po, 10 mg/kg
T2 construct: MAO activities in the mouse brain after; from tissue
T2 sequence (Q64133 1-526): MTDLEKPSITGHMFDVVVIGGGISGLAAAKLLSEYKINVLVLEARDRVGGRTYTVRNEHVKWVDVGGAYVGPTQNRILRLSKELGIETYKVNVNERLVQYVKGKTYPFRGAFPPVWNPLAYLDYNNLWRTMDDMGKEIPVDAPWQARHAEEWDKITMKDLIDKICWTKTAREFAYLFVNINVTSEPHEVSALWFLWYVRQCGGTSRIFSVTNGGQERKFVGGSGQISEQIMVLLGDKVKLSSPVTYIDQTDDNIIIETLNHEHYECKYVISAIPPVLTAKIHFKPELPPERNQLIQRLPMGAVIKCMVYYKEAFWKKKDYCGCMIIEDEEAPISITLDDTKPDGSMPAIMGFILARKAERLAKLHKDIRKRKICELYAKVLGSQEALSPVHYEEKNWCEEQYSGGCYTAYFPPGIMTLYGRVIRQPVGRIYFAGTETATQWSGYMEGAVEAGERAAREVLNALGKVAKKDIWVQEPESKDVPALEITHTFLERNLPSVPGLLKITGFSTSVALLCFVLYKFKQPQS
Description: as §1, §2, §3

noradrenaline neurons = test: Protection of noradrenaline neurons against DSP-4 induced neurotoxicity in the mouse brain; assay type: in vivo; details: Experiment I, pretreatment 10 mg/Kg i.p., mean ± S.E.
Description: The analyses of DSP-4-induced neurotoxic effects were conducted in accordance with […] and Jonsson (Eur. J. Pharmacol. 103 (1984), 269-278), hereby incorporated by reference. Mice were pretreated with M-2-PP (10 mg/Kg) and 2-HxMP (10 mg/Kg) or saline as control via i.p. administration and one hour later challenged with a single i.p. dose of DSP-4 (DSP-4: […] One week after treatment noradrenaline content in the putamen of these mice was analyzed. The results which are shown in Table 5 are mean ± S.E. of five animals in each group.

C#CCN(C)C(C)CCC.Cl.O=C(O)C(=O)O (stereo not drawn) [Example M-2-PP, N-(2-Pentyl)-N-methylpropargylamine hydrochloride and oxalate]
IC50 (monoamine oxidase): 6 µM | ED50 (MAO-B; mouse, oral, average of 5 animals per dose, estimated from dose response curves, read-out: Inhibition of MAO-B activity, dose response (ID50)): 1 mg/kg | Relative activity PE (MAO-B; oral 10 mg/Kg, PE (1.9 × 10^-5 M), mean ± standard error, saline = 100): 31 ± 4% | Relative activity 5-HT (MAO-A): 89 ± 15 | Noradrenaline in putamen (noradrenaline neurons; DSP-4 50 mg/Kg, p < 0.01 vs DSP-4 (DSP-4 alone 33)): 90 ± 0.07% | Noradrenaline in putamen (noradrenaline neurons; saline, no DSP-4): 111 ± 0.09%
